Assay results from patent US11597920B2, “Compositions and methods for enhancing reverse transcriptase activity and/or reducing the inhibition of reverse transcriptase” (BIO-RAD LABORATORIES, INC., priority 2019, dated 2023).

What was measured:
Type in all cases: biochemical
[1] = tested on: thermo-stable RT (e.g., MMLV or engineered MMLV); assay: RT-qPCR: RT tolerance to formalin; settings: for qPCR results from the RT products compared with the RT products without formalin: Human GAPDH
Method: (§1) An RT reaction buffer was formulated so that the RT reaction can be carried out after being mixed together with thermo-stable RT (e.g., MMLV or engineered MMLV) and RNA templates (e.g., Hela RNA). In a 20 μl RT reaction mix there is 1 u of RT enzyme, 10 u of Rnasin (Rnase inhibitor), nucleotides each at 1.5 mM (e.g., dATP, dCTP, dGTP, dTTP), random hexamer, oligo dT, or gene-specific oligo nucleotides at appropriate concentration (0.5 to 1 uM), 4% glycerol, 0.01% detergent (e.g., Tween 20), with or without RT inhibitors (e.g., Heparin, Ethanol, Guanidine Hydrochloride, Formalin, Tannic acid, etc.) or additives that improve RT reaction efficiency or sensitivity (e.g., PVSA). The RT reaction was completed in a T100 Thermo Cycler (Bio-Rad Laboratories Inc. Hercules, Calif.). The RT reaction protocol was as follows: 50° C. 20 min, 95° C. 1 min, and incubation at 4° C.
After RT reaction, the RT products were used for qPCR reaction using SsoAdvanced Universal SYBR Green Supermix (Bio-Rad Laboratories Inc. Hercules, Calif.). The RT product inputs in qPCR reaction ranged from 10% to 0.1% of qPCR reaction, depending on the expression abundance of target genes. Target gene primers (Table 3) at 250 nM were used. The following protocol of qPCR was used on CFC348 Thermo Cycler (Bio-Rad Laboratories Inc. Hercules, Calif.): 95° C. denaturation for 2 min, 40 cycles of 95° C. 5S denaturation, 60° C. 30S annealing/extension/read. After qPCR reaction, Cq values from RT products with and without inhibitors were compared, and usually Cq values were delayed (bigger values) when inhibitors were present. The larger the Cq value relative to no inhibitor RT products, the more inhibition of RT reaction observed.
(§2) Human GAPDH target gene was detected in the qPCR reaction.

[2] = tested on: thermo-stable RT (e.g., MMLV or engineered MMLV); assay: RT-qPCR: RT tolerance to tannic acid
Method: as §1
After RT reaction, the RT products were used for qPCR reaction using SsoAdvanced Universal SYBR Green Supermix (Bio-Rad Laboratories Inc. Hercules, Calif.). The RT product inputs in qPCR reaction ranged from 10% to 0.1% of qPCR reaction, depending on the expression abundance of target genes. Target gene primers (Table 3) at 250 nM were used. […] 30S annealing/extension/read. […]
as §2

[3] = tested on: thermo-stable RT (e.g., MMLV or engineered MMLV); assay: RT-qPCR: RT tolerance to heparin (Cq delay of RT products); settings: for Heparin tolerance: FIG. 2
Method: (§3) An RT reaction buffer was formulated so that the RT reaction can be carried out after being mixed together with thermo-stable RT (e.g., MMLV or engineered MMLV) and RNA templates (e.g., Hela RNA). […] The RT reaction was completed in a T100 Thermo Cycler (Bio-Rad Laboratories Inc. Hercules, Calif.). The RT reaction protocol was as follows: 50° C. 20 min, 95° C. 1 min, and incubation at 4° C.
(§4) After RT reaction, the RT products were used for qPCR reaction using SsoAdvanced Universal SYBR Green Supermix (Bio-Rad Laboratories Inc. Hercules, Calif.). The RT product inputs in qPCR reaction ranged from 10% to 0.1% of qPCR reaction, depending on the expression abundance of target genes. Target gene primers (Table 3) at 250 nM were used. The following protocol of qPCR was used on CFC348 Thermo Cycler (Bio-Rad Laboratories Inc. Hercules, Calif.): 95° C. denaturation for 2 min, 40 cycles of 95° C. 5S denaturation, 60° C. 30S annealing/extension/read.

[4] = tested on: thermo-stable RT (e.g., MMLV or engineered MMLV); assay: RT-qPCR: RT tolerance to other inhibitors (ethanol, guanidine hydrochloride); settings: 7.5% Ethanol and 50 mM Guanidinum hydrochloride
Method: as §3, §4

C=O [Formalin]
qPCR results from the RT products compared with the RT products without formalin ([1]; Formalin 0.125% in RT reaction): significantly delayed | Cq delay ([1]; formalin in RT reaction, without His-HCl): about 4

N[C@@H](Cc1c[nH]cn1)C(=O)O [histidine]
efficiency of the amplification reaction as compared to a control lacking histidine ([1]; reaction mixtures containing formalin): improved the efficiency

O=C(OC[C@H]1O[C@@H](OC(=O)c2cc(O)c(O)c(OC(=O)c3cc(O)c(O)c(O)c3)c2)[C@H](OC(=O)c2cc(O)c(O)c(OC(=O)c3cc(O)c(O)c(O)c3)c2)[C@@H](OC(=O)c2cc(O)c(O)c(OC(=O)c3cc(O)c(O)c(O)c3)c2)[C@@H]1OC(=O)c1cc(O)c(O)c(OC(=O)c2cc(O)c(O)c(O)c2)c1)c1cc(O)c(O)c(OC(=O)c2cc(O)c(O)c(O)c2)c1 [Tannic acid]
Cq delay ([2]; Tannic acid 0.1 μg/μl in the RT reaction, no Poloxamer): over 13 | qPCR results from the RT products compared with the RT products without tannic acid ([2]; tannic acid 0.1 μg/μl, Human GAPDH): greatly delayed

Heparin
Cq delay ([3]; Heparin 0.003 U/μl in the RT reaction, no K-Glu): over 7 | qPCR from the RT products compared with the RT products without heparin ([3]; Heparin 0.0034 u/μl in RT reaction, GAPDH and 18S): greatly delayed

N.N.O=S(=O)(O)O [(NH4)2SO4]
Heparin tolerance [3]: also improves Heparin tolerance though not as effect as K-Glu | tolerance to other inhibitors [4]: compromises Ethanol and GC tolerance

N[C@@H](CCC(=O)[O-])C(=O)[O-].[K+].[K+] [K-Glu, Potassium Glutamate]
Heparin tolerance [3]: improves Heparin tolerance | Cq delay ([3]; Heparin 0.003 U/μl with 100 mM K-Glu present): less than 1 | qPCR from the RT products compared with the RT products without heparin ([3]; Heparin 0.0034 u/μl plus 100 mM potassium Glutamate in RT reaction): did not show much delay | tolerance to other inhibitors [4]: without compromising tolerance

Cl.N[C@@H](Cc1c[nH]cn1)C(=O)O.O [His-HCl, histidine hydrochloride monohydrate]
qPCR results from the RT products compared with the RT products without formalin ([1]; Formalin 0.125% plus 15 to 20 mM His-HCl): did not show a lot delay | Cq delay ([1]; formalin with 15 to 20 mM His-HCl present): less than 1
